For data set [1], the target named is T1, PIEZO1 channels endogenously expressed in HUVECs (Homo sapiens, UniProt Q92508).
T1 construct: HUVECs, which are a physiologically relevant cell type that endogenously expresses PIEZO1 channels; host or cells: HUVEC
Kind of data set: Intracellular Ca2+ measurement in HUVECs. It is filed as cell-based. The conditions noted are these: peak ΔCa2+i, Hill fit, read-out: EC50 (estimated concentration for 50% effect). The procedure: Human umbilical vein endothelial cells (HUVECs) purchased from PromoCell (#C‐12203) were maintained in endothelial cell […] medium 2 (ECGM‐2, PromoCell #C‐22111) supplemented with 500 pg·ml^−1 recombinant human vascular endothelial growth factor 165, 10 ng·ml^−1 recombinant human basic fibroblast growth factor, 200 ng·ml^−1 hydrocortisone, 22.5 μg·ml^−1 heparin and 2% (vol./vol.) fetal calf serum. […] After washing the cell monolayer with D‐PBS (Sigma #D8537), 2 ml pre‐warmed 0.05% trypsin– EDTA (Gibco #25300054) was added to 75 cm^2 flasks until the cells had detached (between 2 and 5 min at 37°C). Complete ECGM‐2 (8 ml) was added to inhibit the trypsin, the cells were counted and their density was adjusted before seeding into fresh vessels for maintenance cultivation or experimental purposes. The medium for maintenance of cultures was completely refreshed every 48 h. HUVECs were used for experiments after a minimum of three and a maximum of five passages. […]
HEK 293‐TREx cells and their stably transfected derivatives or transiently transfected HEK 293 or HeLa cells were seeded at a density of 7.5 × 10^4 cells per well into poly‐D‐lysine‐coated 96‐well plates. […] Measurements were made at room temperature on a 96‐well fluorescence plate reader (FlexStation 3, Molecular Devices, Sunnyvale, CA, USA) controlled by SoftMax Pro software v7.0.3. […]

A further data set can be described thus: Microsomal half-life. It is filed as in vitro ADME. The conditions noted are these: mouse liver microsomes; for half-life at 1 μM: 1 μM compound. The procedure: Compound half‐lives were measured by Malvern Panalytical (UK). Briefly, microsomal mouse liver microsomes (1 mg protein·ml^−1) were pre‐incubated with NADPH cofactor solution at 37°C. Biotransformation was initiated by addition and mixing of 1 μM test compound in a final volume of 350 μl; 25 μl aliquots were removed at 5 min intervals for 35 min and quenched in 300 μl ice‐cold methanol containing internal standard. The protein in the samples was then precipitated by centrifugation at 4°C, and the supernatant was analysed by LC–MS/MS to quantify the test parent compound remaining at each time point.
A general note: Liver microsomes are vesicles of endoplasmic reticulum, rich in cytochrome P450 enzymes.

The target of a further data set is T2, hPIEZO1 (Homo sapiens, UniProt Q92508).
T2 construct: expressed in transfected cells
T2 sequence (Q92508 whole entry): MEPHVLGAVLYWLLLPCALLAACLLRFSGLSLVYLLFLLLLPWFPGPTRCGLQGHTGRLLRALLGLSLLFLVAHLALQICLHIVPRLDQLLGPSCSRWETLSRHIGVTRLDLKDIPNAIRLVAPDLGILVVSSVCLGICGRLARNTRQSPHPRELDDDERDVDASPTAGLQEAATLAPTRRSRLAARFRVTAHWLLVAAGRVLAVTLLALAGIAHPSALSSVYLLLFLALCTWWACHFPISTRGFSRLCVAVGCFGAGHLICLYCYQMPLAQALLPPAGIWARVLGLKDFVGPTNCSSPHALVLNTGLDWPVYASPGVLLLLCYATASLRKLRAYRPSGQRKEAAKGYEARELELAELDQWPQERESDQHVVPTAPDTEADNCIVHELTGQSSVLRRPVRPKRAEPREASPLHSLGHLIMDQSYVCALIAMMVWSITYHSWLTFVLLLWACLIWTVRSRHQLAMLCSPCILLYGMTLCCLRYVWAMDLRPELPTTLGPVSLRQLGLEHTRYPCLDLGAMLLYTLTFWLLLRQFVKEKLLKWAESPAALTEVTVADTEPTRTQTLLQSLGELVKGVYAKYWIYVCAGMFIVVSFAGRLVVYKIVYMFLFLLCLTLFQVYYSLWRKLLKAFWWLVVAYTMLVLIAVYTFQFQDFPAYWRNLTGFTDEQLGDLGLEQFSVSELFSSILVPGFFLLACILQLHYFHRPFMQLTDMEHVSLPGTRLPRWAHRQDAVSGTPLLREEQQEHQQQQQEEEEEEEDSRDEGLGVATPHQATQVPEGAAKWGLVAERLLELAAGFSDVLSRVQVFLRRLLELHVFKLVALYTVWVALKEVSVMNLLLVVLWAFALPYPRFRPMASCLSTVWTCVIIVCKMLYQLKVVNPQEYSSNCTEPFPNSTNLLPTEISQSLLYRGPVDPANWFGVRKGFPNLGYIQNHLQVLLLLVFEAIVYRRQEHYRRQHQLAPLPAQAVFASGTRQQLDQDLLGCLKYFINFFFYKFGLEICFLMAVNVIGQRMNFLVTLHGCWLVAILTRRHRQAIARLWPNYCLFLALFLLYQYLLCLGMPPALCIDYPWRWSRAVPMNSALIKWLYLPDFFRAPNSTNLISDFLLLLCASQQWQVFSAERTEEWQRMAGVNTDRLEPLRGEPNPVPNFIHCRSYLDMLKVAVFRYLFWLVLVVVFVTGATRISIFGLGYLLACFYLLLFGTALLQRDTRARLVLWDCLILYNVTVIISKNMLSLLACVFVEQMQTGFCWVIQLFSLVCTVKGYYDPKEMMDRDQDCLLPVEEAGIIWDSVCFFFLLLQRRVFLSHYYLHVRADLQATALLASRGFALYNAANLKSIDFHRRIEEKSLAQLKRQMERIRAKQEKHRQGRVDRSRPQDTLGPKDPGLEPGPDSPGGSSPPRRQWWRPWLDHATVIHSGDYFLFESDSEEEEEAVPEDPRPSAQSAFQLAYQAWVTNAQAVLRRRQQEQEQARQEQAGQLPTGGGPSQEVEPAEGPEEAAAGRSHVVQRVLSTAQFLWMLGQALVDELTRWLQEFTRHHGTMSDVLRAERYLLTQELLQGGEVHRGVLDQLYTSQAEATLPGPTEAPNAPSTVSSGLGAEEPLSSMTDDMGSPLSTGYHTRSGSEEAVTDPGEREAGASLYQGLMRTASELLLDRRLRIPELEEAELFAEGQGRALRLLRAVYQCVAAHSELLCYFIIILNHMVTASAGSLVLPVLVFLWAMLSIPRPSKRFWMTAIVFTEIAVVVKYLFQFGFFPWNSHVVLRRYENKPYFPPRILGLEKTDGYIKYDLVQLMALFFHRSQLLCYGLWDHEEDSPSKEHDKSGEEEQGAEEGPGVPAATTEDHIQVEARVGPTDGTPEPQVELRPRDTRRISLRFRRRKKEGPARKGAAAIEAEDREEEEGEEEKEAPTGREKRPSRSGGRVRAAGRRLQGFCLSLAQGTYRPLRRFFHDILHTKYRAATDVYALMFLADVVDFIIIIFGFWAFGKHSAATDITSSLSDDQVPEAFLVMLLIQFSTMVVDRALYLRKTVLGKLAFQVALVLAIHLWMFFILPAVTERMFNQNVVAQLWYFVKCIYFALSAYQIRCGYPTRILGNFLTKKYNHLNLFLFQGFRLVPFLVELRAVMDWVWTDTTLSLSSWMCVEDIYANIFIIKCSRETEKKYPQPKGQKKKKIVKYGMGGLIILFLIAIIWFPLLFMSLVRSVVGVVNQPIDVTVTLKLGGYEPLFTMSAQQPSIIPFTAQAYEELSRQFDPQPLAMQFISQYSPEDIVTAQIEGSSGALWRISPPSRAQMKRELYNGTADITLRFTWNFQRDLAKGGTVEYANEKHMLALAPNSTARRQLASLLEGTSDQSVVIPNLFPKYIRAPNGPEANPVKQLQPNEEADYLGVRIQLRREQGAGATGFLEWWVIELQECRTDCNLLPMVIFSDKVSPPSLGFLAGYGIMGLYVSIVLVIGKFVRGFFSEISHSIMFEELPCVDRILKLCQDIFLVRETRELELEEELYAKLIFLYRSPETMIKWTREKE
Kind of data set: Pre-treatment with analogue before Yoda1 stimulus, Ca2+ assay in hPIEZO1-TREx cells. It counts as cell-based. The conditions noted are these: hPIEZO1-TREx, 10 μM compound 30 min pretreatment before 2 μM Yoda1. The procedure:
HEK 293‐TREx cells and their stably transfected derivatives or transiently transfected HEK 293 or HeLa cells were seeded at a density of 7.5 × 10^4 cells per well into poly‐D‐lysine‐coated 96‐well plates. The plates were either commercially pre‐coated with poly‐D‐lysine (Greiner Bio‐One #655946) or (Greiner Bio‐One #655090) were coated in‐house with 35 μl of a 10 μg·ml^−1 poly‐D‐lysine (Bio‐Techne, Cultrex # 3439‐100‐01) in sterile deionised water per well for at least 24 h and rinsed three times with 100 μl per well sterile D‐PBS before addition of cells. HUVECs were seeded into tissue culture‐treated 96‐well plates (Greiner Bio‐One #655090) at a density of either 2.5 × 10^4 cells 24 h before experimentation or 1.25 × 10^4 cells 48 h before experimentation. Cells were incubated with 2 μM Fura‐2‐AM (Molecular Probes™) in the presence of 0.01% (wt./vol.) pluronic F127 (Sigma‐Aldrich #P2443) in standard bath solution (SBS) for 1 h at 37°C. Cells were washed with SBS for 30 min at room temperature. Alternatively, if inhibitors were being tested, these were added at this time, immediately following a wash in SBS. (−)‐Englerin A (Akbulut et al., [2015]) was used in SBS containing 0.01% pluronic acid as a dispersing agent to minimise aggregation of compound. Unless otherwise stated, the final concentration of DMSO was 0.2% (vol./vol). Working 2000× stock solutions of test compounds were freshly made in DMSO and diluted 1000‐fold in SBS during the 30 min SBS wash/inhibitor pre‐incubation period to obtain 2× solutions for injection. When testing the highest concentration of Yoda1, KC159 and KC289 (30 μM), the final DMSO concentration was 0.6% (vol./vol.). Measurements were made at room temperature on a 96‐well fluorescence plate reader (FlexStation 3, Molecular Devices, Sunnyvale, CA, USA) controlled by SoftMax Pro software v7.0.3. Recipient wells containing 80 μl SBS/0.2% (vol./vol.) DMSO vehicle or inhibitor compound received 80 μl 2× compound at an injection rate of 1 μl·s^−1, and the pipette introduced liquids from a height setting of 70 μl. No trituration was performed. For recordings using Fura‐2, the change in intracellular Ca was indicated as the ratio of Fura‐2 emission (510 nm) intensities at 340 and 380 nm excitation. Photomultipliers were set to medium sensitivity. SBS contained 130 mM NaCl, 5 mM KCl, 8 mM D‐glucose, 10 mM HEPES, 1.2 mM MgCl2 and 1.5 mM CaCl2, and the pH was adjusted to 7.4 with NaOH. The solution was filtered through a 0.2 μm bottle‐top filter prior to use and handled aseptically thereafter.
In view of the effect of Dooku1 described above, we tested if there are inhibitory actions of the new Yoda1 analogues by pre‐treating cells at 10 μM for 30 min prior to adding 2 μM Yoda1 (Figures 9 and S9, SI 1). All except KC157 and KC161 inhibited the action of Yoda1 on hPIEZO1 channels (Figures 9a and S9, SI 1). […] KC159 and KC289 were agonists, and so they may inhibit the effect of Yoda1 simply by pre‐activating the channels. KC158, KC161 and KC162 are also agonists of mPIEZO1 channels (Figure 3). […] Only the 2‐benzoic acid analogue (KC157) lacks agonist or antagonist properties.

These results are taken from publication PMC10952572, “Improved PIEZO1 agonism through 4‐benzoic acid modification of Yoda1” (British Journal of Pharmacology, 2023).

T1 sequence (Q92508 whole entry): as above

As for `O=C([O-])c1ccc(-c2nnc(SCc3c(Cl)cccc3Cl)s2)cc1.[K+]` [KC289], the EC50 in data set [1] is 1140 nM. Also, in “Microsomal half-life”, the “Microsomal half-life relative to Yoda1” value is given as “at least 20 times” and the half-life (in general, the time needed for the level to fall by half in the phase considered) at 1 μM was 24.6 min. Further, the “2 μM Yoda1-evoked peak ΔCa2+i (ΔF340/380), median fold difference compared to DMSO pretreatment” value at hPIEZO1 is on record as −2.5 fold.
The corresponding values for `O=C(O)c1ccc(-c2nnc(SCc3c(Cl)cccc3Cl)s2)cc1` [KC159] are 2280 nM, “at least 20 times”, 29.6 min and −1.7 fold.
